Key:
[1] = test system: control sera (pooled serum of ten healthy LUMC hospital workers; commercial negative donor pooled serum from the Dutch bloodbank); assay type: binding, human; design: Binding of Control serum LUMC to linear peptides / Binding of Control serum Blood-bank to linear peptides / Binding of Control serum LUMC to looped peptides / Binding of Control Serum Blood-Bank to Looped peptides / Binding of Control serum LUMC to linear peptides of the protein M of SARS-CoV Urbani / Binding of Control serum Blood-bank to linear peptides of the protein M of SARS-CoV Urbani / Binding of Control serum LUMC to looped peptides of the protein M of SARS-CoV Urbani / Binding of Control Serum Blood-Bank to Looped peptides of the protein M of SARS-CoV Urbani: unit not given here
[2] = test system: antibodies in sera from SARS patients (sera 1a, 1b, 2, 6, 37, 62, London, SARS-yellow, SARS-green); assay type: binding, human; design: Binding of serum 6 to linear peptides of protein X1 of SARS-CoV Urbani / Binding of serum 37 to linear peptides of protein X1 of SARS-CoV Urbani / Binding of serum 6 to looped/cyclic peptide (PEPSCAN-ELISA) / Binding of serum 37 to looped/cyclic peptide (PEPSCAN-ELISA) / Binding of serum 37 to looped/cyclic peptides of protein X1 of SARS-CoV Urbani / Binding of serum 6 to linear peptides of protein X2 / Binding of serum 37 to linear peptides of protein X2 / Binding of serum 37 to looped/cyclic peptides of protein X2 of SARS-CoV Urbani / Binding of serum 6 to linear peptides of protein M of SARS-CoV Urbani / Binding of serum 37 to linear peptides of protein M of SARS-CoV Urbani / Binding of serum 6 to looped/cyclic peptides of protein M of SARS-CoV Urbani / Binding of serum 37 to looped/cyclic peptides of protein M of SARS-CoV Urbani / Binding of serum 6 to linear peptides of protein X3 of SARS-CoV Urbani / Binding of serum 37 to linear peptides of protein X3 of SARS-CoV Urbani / Binding of serum 37 to looped/cyclic peptides of protein X3 of SARS-CoV Urbani / Binding of serum 6 to linear peptides of protein X4 of SARS-CoV Urbani / Binding of serum 37 to linear peptides of protein X4 of SARS-CoV Urbani / Binding of serum 37 to looped/cyclic peptides of protein X4 of SARS-CoV Urbani / Binding of serum 6 to linear peptides of protein X5 of SARS-CoV Urbani / Binding of serum 37 to linear peptides of protein X5 of SARS-CoV Urbani / Binding of serum 37 to looped/cyclic peptides of protein X5 of SARS-CoV Urbani / Binding of serum 6 to linear peptides of protein N of SARS-CoV Urbani / Binding of serum 37 to linear peptides of protein N of SARS-CoV Urbani / Binding of serum 6 to linear peptide (PEPSCAN-ELISA) / Binding of serum 1a to looped/cyclic peptides of protein N of SARS-CoV Urbani / Binding of serum 1b to looped/cyclic peptides of protein N of SARS-CoV Urbani / Binding of serum 2 to looped/cyclic peptides of protein N of SARS-CoV Urbani / Binding of serum 6 to looped/cyclic peptides of protein N of SARS-CoV Urbani / Binding of serum 37 to looped/cyclic peptides of protein N of SARS-CoV Urbani / Binding of serum 62 to looped/cyclic peptides of protein N of SARS-CoV Urbani / Binding of serum London to looped/cyclic peptides of protein N of SARS-CoV Urbani / Binding of serum SARS-green to looped/cyclic peptides of protein N of SARS-CoV Urbani: unit not given here
[3] = test system: recombinant human anti-SARS-CoV antibody 03-018; assay type: binding; design: Binding of antibody 03-018 to linear peptides of the N protein of SARS-CoV Urbani / Binding of antibody 03-018 to looped/cyclic peptides of the N protein of SARS-CoV Urbani: unit not given here
[4] = test system: rabbit serum obtained by immunizing a rabbit with the SARS-CoV strain Frankfurt 1; assay type: binding; design: Binding of a rabbit serum to linear peptides / Binding of a rabbit serum to looped peptides / Rabbit serum linear peptides / Rabbit serum looped peptides / Binding of a rabbit serum to linear peptides of protein N of SARS-CoV Urbani (Rabbit serum linear peptides) / Binding of a rabbit serum to looped/cyclic peptides of protein N of SARS-CoV Urbani (Rabbit serum looped peptides): unit not given here

| Sequence | Binding of serum 1a to linear peptides of protein N of SARS-CoV Urbani [2] | Binding of serum 1a to looped/cyclic peptides of protein N of SARS-CoV Urbani [2] | Binding of serum 1b to linear peptides of protein N of SARS-CoV Urbani [2] | Binding of serum 1b to looped/cyclic peptides of protein N of SARS-CoV Urbani [2] | Binding of serum 2 to linear peptides of protein N of SARS-CoV Urbani [2] | Binding of serum 2 to looped/cyclic peptides of protein N of SARS-CoV Urbani [2] | Binding of serum 6 to linear peptides of protein N of SARS-CoV Urbani [2] | Binding of serum 6 to looped/cyclic peptides of protein N of SARS-CoV Urbani [2] | Binding of serum 37 to linear peptides of protein N of SARS-CoV Urbani [2] | Binding of serum 37 to looped/cyclic peptides of protein N of SARS-CoV Urbani [2] | Binding of serum 62 to linear peptides of protein N of SARS-CoV Urbani [2] | Binding of serum 62 to looped/cyclic peptides of protein N of SARS-CoV Urbani [2] | Binding of serum London to linear peptides of protein N of SARS-CoV Urbani [2] | Binding of serum London to looped/cyclic peptides of protein N of SARS-CoV Urbani [2] | Binding of serum SARS-green to linear peptides of protein N of SARS-CoV Urbani [2] | Binding of serum SARS-green to looped/cyclic peptides of protein N of SARS-CoV Urbani [2] | Binding of serum SARS-yellow to linear peptides of protein N of SARS-CoV Urbani [2] | Binding of serum SARS-yellow to looped/cyclic peptides of protein N of SARS-CoV Urbani [2] | Binding of antibody 03-018 to linear peptides of the N protein of SARS-CoV Urbani [3] | Binding of antibody 03-018 to looped/cyclic peptides of the N protein of SARS-CoV Urbani [3] | further results |
| --- | --- | --- | --- | --- | --- | --- | --- | --- | --- | --- | --- | --- | --- | --- | --- | --- | --- | --- | --- | --- | --- |
| PNNTASWFTALTQHG | 0.2 | 0.4 | 0.1 | 0.2 | 0.2 | 0.3 | 0.2 | 0.2 | 0.7 | 0.6 | 0.7 | 0.5 | 0.5 | 0.3 | 0.3 | 0.7 | 0.4 | 0.6 | 0.1 | 0.3 | Binding of Control Serum Blood-Bank to Looped peptides [1]: 0.7; Binding of Control serum Blood-bank to linear peptides [1]: 0.5; Binding of Control serum LUMC to linear peptides [1]: 0.7; Binding of Control serum LUMC to looped peptides [1]: 0.7; Binding of a rabbit serum to linear peptides of protein N of SARS-CoV Urbani (Rabbit serum linear peptides) [4]: 0.1; Binding of a rabbit serum to looped/cyclic peptides of protein N of SARS-CoV Urbani (Rabbit serum looped peptides) [4]: 0.4 |
| ASLPYGANKEGIVWV | 0.2 | 0.4 | 0.1 | 0.3 | 0.2 | 0.7 | 0.1 | 0.3 | 0.6 | 1.0 | 0.5 | 1.0 | 0.4 | 0.6 | 0.1 | 0.8 | 0.5 | 0.3 | 0.1 | 0.3 | Binding of Control Serum Blood-Bank to Looped peptides [1]: 0.9; Binding of Control serum Blood-bank to linear peptides [1]: 0.7; Binding of Control serum LUMC to linear peptides [1]: 0.6; Binding of Control serum LUMC to looped peptides [1]: 0.8; Binding of a rabbit serum to linear peptides of protein N of SARS-CoV Urbani (Rabbit serum linear peptides) [4]: 0.2; Binding of a rabbit serum to looped/cyclic peptides of protein N of SARS-CoV Urbani (Rabbit serum looped peptides) [4]: 0.2 |
| EVTPSGTWLTYHGAI | 0.2 | 0.4 | 0.1 | 0.3 | 0.1 | 0.5 | 0.2 | 0.3 | 0.7 | 0.8 | 0.5 | 0.9 | 0.4 | 0.5 | 0.1 | 0.7 | 0.5 | 0.4 | 0.1 | 0.2 | Control Serum Blood-Bank Looped peptides [1]: 0.8; Control serum Blood-bank linear peptides [1]: 0.7; Control serum LUMC linear peptides [1]: 0.6; Control serum LUMC looped peptides [1]: 0.7; Binding of a rabbit serum to linear peptides of protein N of SARS-CoV Urbani (Rabbit serum linear peptides) [4]: 0.1; Binding of a rabbit serum to looped/cyclic peptides of protein N of SARS-CoV Urbani (Rabbit serum looped peptides) [4]: 0.3 |
| YHGAIKLDDKDPQFK | 0.3 | 0.2 | 0.2 | 0.1 | 0.3 | 0.2 | 0.2 | 0.1 | 0.8 | 0.4 | 1.6 | 0.3 | 0.7 | 0.3 | 0.9 | 0.1 | 0.7 | 0.1 | 0.1 | 0.2 | Control Serum Blood-Bank Looped peptides [1]: 0.4; Control serum Blood-bank linear peptides [1]: 0.9; Control serum LUMC linear peptides [1]: 0.9; Control serum LUMC looped peptides [1]: 0.3; Binding of a rabbit serum to linear peptides of protein N of SARS-CoV Urbani (Rabbit serum linear peptides) [4]: 0.2; Binding of a rabbit serum to looped/cyclic peptides of protein N of SARS-CoV Urbani (Rabbit serum looped peptides) [4]: 0.3 |

From patent US20070128217A1 (priority 2003, published 2007)
